Test system: Cryptosporidium andersoni BioA
Assay: BioA enzyme activity with DMSO or herbicide in vitro
Format: biochemical
Conditions: 0.5 μM, spermidine in substrate mix
Source text: A pet-24 plasmid containing a DNA sequence encoding each identified variant mutant of BIO3-BIO1 derived from Arabidopsis thaliana from example 5 above, as shown in Table 13 below and as shown in full in SEQ ID NOs: 15 to 155, codon-optimised for expression in E. coli, with an N-terminal 6×His-tag and thrombin cleavage site and under control of a T7 promoter, and was synthesised by Twist Bioscience, in a similar manner to SEQ ID NO:311. These plasmids were then expressed in E. coli BL21 (DE3) bioA with 50 μg/mL kanamycin and 25 μg/mL chloramphenicol selection. Overnight cultures grown at 37° C. were used to inoculate 8×500 mL AIM in shake flasks at a ratio of 1:100. Cultures were grown at 37° C., 200 rpm for 3.5 hours and then overnight at 20° C. Cells were harvested by centrifugation for 30 minutes at 10 000 g. Cells were stored at −80° C. until extraction. 30 g of cell pellet from was thawed in 120 mL of IMAC buffer A (20 mM HEPES pH7.5, 25 mM imidazole, 500 mM sodium chloride, 0.15 mM pyridoxal phosphate, 0.5 mM TCEP, 1× complete Protease Inhibitor Tablet (Roche)). The resuspension was passed through a cell disrupter at 18 000 PSI and centrifuged at 50 000 g for 25 minutes at 4° C. The His-tagged BIO3-BIO1 protein was purified from the extract supernatant on an AKTA avant chromatography system (Cytiva) using a HisTrap FF column and eluted in IMAC buffer B ((20 mM HEPES pH7.5, 500 mM imidazole, 500 mM sodium chloride, 0.15 mM pyridoxal phosphate, 0.5 mM TCEP) followed by SEC using a HiLoad 26/60 Superdex200 column in SEC buffer (25 mM HEPES pH7.5, 150 mM sodium chloride, 0.15 mM pyridoxal phosphate, 0.5 mM TCEP). Protein concentration was measured and calculated using the absorbance at 280 nm. Extracts were diluted 1 in 4 and 10 uL was analysed by SDS PAGE.
To measure BIO3-BIO1 mutant enzyme activity in the presence of herbicide, herbicides were incubated with 20 μL of enzyme mix (100 mM EPPS pH 8.6, 0.1 mM pyridoxal phosphate, 0.1 mg/mL BSA, 50 nM BIO3-BIO1 enzyme) for 10 minutes at 20° C. in a well of a 96-well half-area black plate, followed by the addition of 20 μL of substrate mix (final concentration of 100 mM EPPS pH 8.6, 0.1 mM pyridoxal phosphate, 0.1 mg/mL BSA, 100 μM spermidine, 20 μM KAPA, 100 mM NaCO3) and further incubation for 75 minutes at 20° C. The reaction was terminated by the addition of 50 μL of derivatisation mix (final concentration of 250 mM borate NaOH pH 9.4, 3.6 mM o-phthalaldehyde, 7 mM β-mercaptoethanol, 17% (v/v) ethanol, 3.6% (v/v) methanol). The fluorescent product produced by the reaction of DAPA with o-phthalaldehyde and 7 mM β-mercaptoethanol was measured at 470 nm after excitation at 410 nm. The percentage inhibition was calculated as the activity in the presence of one of three concentrations of each herbicide compound A to M (note that the compounds labelled as A to M are identified hereinabove in the relevant section of the description) as a percentage of the activity in DMSO (Table 12 and 13). The percentage activity versus WT was also calculated and is shown in Table 13 and 14 (NT indicates mutation not tested in table 13, note that these mutations are tested at different compound concentrations for compounds L, M and C, and the results are shown in table 14).
Protein of Escherichia coli BioA (SEQ ID NO:159), Pantoea ananatis BioA (SEQ ID NO:167), Streptomyces viridochromogenes BioA (SEQ ID NO:170), Cryptosporidium andersoni BioA (SEQ ID NO:160), Stenotrophomonas maltophilia BioA (SEQ ID NO:171), Chroococcidiopsis BioA (SEQ ID NO:184), Pedobacter hartonius BioA (SEQ ID NO:181), Chitinophaga filiformis BioA (SEQ ID NO:180), Tenacibaculum adriaticum BioA (SEQ ID NO:185) and Bacillus subtilis BioA (SEQ ID NO:166) was prepared using the method in Example 6. BioA enzyme activity in the presence of herbicide or DMSO in vitro for each of the proteins was assayed according to the enzyme assay method in Example 6, except in some reactions spermidine was replaced with 2 mM S-Adenosyl methionine.

SMILES: CCn1c(Cn2ccc(C(F)(F)F)n2)cc(=O)c(C(=O)O)c1-c1ccc(Cl)c(Cl)c1 [Compound L, 2-(3,4-dichlorophenyl)-1-ethyl-4-oxo-6-[[3-(trifluoromethyl)pyrazol-1-yl]methyl]pyridine-3-carboxylic acid]
- % Inhibition relative to DMSO treatment: 0%

Reference: patent US20260226493A1, “HERBICIDE RESISTANT PLANTS” (SYNGENTA CROP PROTECTION AG, priority 2023, published 2026)
